Assay results as given in BindingDB's records for doi:10.1002/cbic.201200571 (Technical University of Dortmund, 2013).
pIC50: −log10 of the molar value.

How the values were obtained:
[1] = molecular target: Acyl-protein thioesterase 1 (Homo sapiens, UniProt O75608); assay: Enzymatic Protein Activity Assay
Protocol: (§1) The enzyme activities were determined by measuring the release of fluorescent 6,8-difluoro-4-methylumbelliferone (DiFMU) by the APT hydrolysis of DiFMU octanoate (DiFMUO) in a Tecan Infinite M200 microplate reader in a 96-well format.

[2] = molecular target: Acyl-protein thioesterase 2 (Homo sapiens, UniProt O95372); assay: Enzymatic Protein Activity Assay
Acyl-protein thioesterase 2, sequence (O95372 whole entry): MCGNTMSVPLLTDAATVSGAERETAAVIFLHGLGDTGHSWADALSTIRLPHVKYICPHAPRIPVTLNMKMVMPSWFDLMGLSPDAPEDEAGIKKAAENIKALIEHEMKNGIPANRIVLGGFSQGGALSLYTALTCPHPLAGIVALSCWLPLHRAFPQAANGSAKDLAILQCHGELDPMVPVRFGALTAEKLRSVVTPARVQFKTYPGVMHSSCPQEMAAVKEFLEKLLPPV
Protocol: as §1

Acyl-protein thioesterase 1, sequence (O75608 whole entry): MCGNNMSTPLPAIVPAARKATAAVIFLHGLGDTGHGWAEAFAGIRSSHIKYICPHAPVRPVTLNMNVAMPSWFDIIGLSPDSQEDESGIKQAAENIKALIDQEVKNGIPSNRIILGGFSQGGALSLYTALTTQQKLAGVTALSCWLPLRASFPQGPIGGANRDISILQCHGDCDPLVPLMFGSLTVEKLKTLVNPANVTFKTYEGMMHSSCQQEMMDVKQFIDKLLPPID

Row | Structure (SMILES) | pIC50 [1] | pIC50 [2]
1 | OB(O)c1ccc(-c2ccccc2)cc1 [(4-phenylphenyl)boranediol] | 4.77 | 5.45
2 | OB(O)c1cc(F)cc(F)c1 [Phenylboronic acid, 8] | 6.29 | 5.71
3 | OB(O)c1ccccc1 [Phenylboronic acid, 22] | 4.83 | 4.60
4 | OB(O)c1cc2ccccc2o1 [Phenylboronic acid, 21] | 4.87 | 4.95
5 | OB(O)c1ccc(Cl)cc1 [Phenylboronic acid, 18] | 5.34 | 5.38
6 | OB(O)c1ccccc1-c1ccccc1 [(2-phenylphenyl)boranediol] | < 4.30 | < 4.30
7 | Cc1ccc(Br)c(B(O)O)c1 [Phenylboronic acid, 19] | 5.20 | 5.67
8 | OB(O)c1cc2ccccc2s1 [Phenylboronic acid, 11] | 5.64 | 6.28
9 | COC(=O)c1cc(B(O)O)cc([N+](=O)[O-])c1 [Phenylboronic acid, 16] | 5.43 | 5.53
10 | OB(O)c1cc(Oc2ccccc2)ccc1I [Phenylboronic acid, 15] | 5.49 | 6.62
11 | OB(O)c1cccc(Cl)c1 [Phenylboronic acid, 10] | 5.85 | 6.38
12 | OB(c1ccccc1)c1cccc(COCc2cccc(B(O)c3ccccc3)c2)c1 [Phenylboronic acid, 7] | 4.47 | 4.38
13 | OB(O)c1ccc(Cl)c(Cl)c1 [3,4-Dichlorophenyl boronic acid] | 5.96 | 6.86
14 | CC(=O)c1cccc(B(O)O)c1 [Phenylboronic acid, 17] | 5.41 | 5.54
15 | CN(C)CCOB(c1ccccc1)c1cccc(COCc2cccc(B(OCCN(C)C)c3ccccc3)c2)c1 [Phenylboronic acid, 14] | 5.49 | 5.74
16 | NCCOB(c1ccccc1)c1ccc(COCc2ccc(B(OCCN)c3ccccc3)cc2)cc1 [Phenylboronic acid, 13] | 5.57 | 5.39
